Results: US5502035A, “N-terminus modified analogs of LHRH” (Tap Holdings Inc., priority 1994, dated 1996)
Non-standard residues stand in square brackets, D forms with d. Residues, ends and D or L forms follow the SMILES beside them. Groups on a side chain read outwards from the residue. ξ: configuration not given here. *: point of attachment. Shikimoyl = O=C(C1=C[C@@H](O)[C@@H](O)[C@H](O)C1)*; ξTetrahydrofuran2carbonyl = O=C(C1CCCO1)*; dPhe(4-Cl) = N[C@H](Cc1ccc(Cl)cc1)C(=O)O; d2Nal = N[C@H](Cc1ccc2ccccc2c1)C(=O)O; Lys(iPr) = CC(C)NCCCC[C@H](N)C(=O)O; NMeY = CN[C@@H](Cc1ccc(O)cc1)C(=O)O; dCit = NC(=O)NCCC[C@@H](N)C(=O)O; d3Pal = N[C@H](Cc1cccnc1)C(=O)O; Salicyloyl = O=C(c1ccccc1O)*; Nicotinoyl = O=C(c1cccnc1)*; Ava = NCCCCC(=O)O; GABA = NCCCC(=O)O; azaGly = NNC(=O)O; βAla = NCCC(=O)O

Target: T1, LHRH (Rattus norvegicus, UniProt P30969)
T1 construct: endogenous in cells; host or cells: rat pituitary cells (own knowledge of the cited Haviv 1989 method)
T1 sequence (P30969 1-327): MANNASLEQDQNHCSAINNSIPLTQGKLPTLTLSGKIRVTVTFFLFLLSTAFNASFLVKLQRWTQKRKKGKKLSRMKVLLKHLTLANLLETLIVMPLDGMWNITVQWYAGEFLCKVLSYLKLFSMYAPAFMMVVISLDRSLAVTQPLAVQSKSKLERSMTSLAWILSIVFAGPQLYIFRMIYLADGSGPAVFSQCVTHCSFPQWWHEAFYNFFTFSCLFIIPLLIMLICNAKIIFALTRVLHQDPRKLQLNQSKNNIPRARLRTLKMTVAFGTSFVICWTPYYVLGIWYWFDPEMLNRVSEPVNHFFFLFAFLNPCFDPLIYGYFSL
Assay: in vitro test for LHRH antagonist potency (pA2)
Type: cell-based
Conditions: negative logarithm of the antagonist concentration required to shift the response curve produced by the agonist leuprolide to two-fold higher concentration
Experimental: Representative compounds of the present invention were evaluated in an in vitro test for LHRH antagonist potency (pA2). The test employed the method detailed in F. Haviv, et al. J. Med. Chem., 32:2340-2344 (1989). The values of pA2 are the negative logarithms of the concentration of the particular antagonist test compound required to shift the response curve produced by the agonist leuprolide to two-fold higher concentration. (Leuprolide is the LHRH agonist having the structure 5-oxo-Pro^1 -His^2 -Trp^3 -Ser^4 -Tyr^5 -D-Leu^6 -Leu^7 -Arg^8 -Pro^9 -NHEt and is disclosed and claimed in U.S. Pat. No. 4,005,063.) Typically pA2 values of 9.5 or greater are indicative of good LHRH antagonist potency, with values of 10.0 or greater being preferred.

CC(C)C[C@H](NC(=O)[C@@H](CCCCNC(=O)c1cccnc1)NC(=O)[C@H](Cc1ccc(O)cc1)N(C)C(=O)[C@H](CO)NC(=O)[C@@H](Cc1cccnc1)NC(=O)[C@@H](Cc1ccc(Cl)cc1)NC(=O)[C@@H](Cc1ccc2ccccc2c1)NC(=O)CNC(=O)c1ccccc1O)C(=O)N[C@@H](CCCCNC(C)C)C(=O)N1CCC[C@H]1C(=O)N[C@H](C)C(N)=O [Example 2h, N-Salicyl-Gly-D2Nal-D4ClPhe-D3Pal-Ser-NMeTyr-DLys(N-epsilon-Nicotinyl) -Leu-Lys(N-epsilon-Isopropyl)-Pro-DAlaNH2] (Salicyloyl-G[d2Nal][dPhe(4-Cl)][d3Pal]S[NMeY][dK](Nicotinoyl)L[Lys(iPr)]P[dA]-NH2)
Kb: 0.01 nM

CC(C)C[C@H](NC(=O)[C@@H](CCCCNC(=O)c1cccnc1)NC(=O)[C@H](Cc1ccc(O)cc1)N(C)C(=O)[C@H](CO)NC(=O)[C@@H](Cc1cccnc1)NC(=O)[C@@H](Cc1ccc(Cl)cc1)NC(=O)[C@@H](Cc1ccc2ccccc2c1)NC(=O)CNC(=O)[C@@H]1CCCO1)C(=O)N[C@@H](CCCCNC(C)C)C(=O)N1CCC[C@H]1C(=O)N[C@H](C)C(N)=O [Example 4, N-(S)-Tetrahydrofur-2-oyl-Gly-D2Nal-D4ClPhe-D3Pal-Ser-NMeTyr-DLys(Nicotinyl) -Leu-Lys(N-epsilon-Isopropyl)-Pro-DAlaNH2]
Kb: 0.00794 nM

CC(C)C[C@H](NC(=O)[C@@H](CCCCNC(=O)c1cccnc1)NC(=O)[C@H](Cc1ccc(O)cc1)N(C)C(=O)[C@H](CO)NC(=O)[C@@H](Cc1cccnc1)NC(=O)[C@@H](Cc1ccc(Cl)cc1)NC(=O)[C@@H](Cc1ccc2ccccc2c1)NC(=O)CNC(=O)[C@H]1CCCO1)C(=O)N[C@@H](CCCCNC(C)C)C(=O)N1CCC[C@H]1C(=O)N[C@H](C)C(N)=O [Example 5, N-(R) Tetrahydrofur-2-oyl-Gly-D2Nal-D4ClPhe-D3Pal-Ser-NMeTyr-DLys(Nicotinyl) -Le u-Lys(N-epsilon-Isopropyl)-Pro-DAlaNH2]
Kb: 0.0214 nM

CC(C)C[C@H](NC(=O)[C@@H](CCCCNC(=O)c1cccnc1)NC(=O)[C@H](Cc1ccc(O)cc1)N(C)C(=O)[C@H](CO)NC(=O)[C@@H](Cc1cccnc1)NC(=O)[C@@H](Cc1ccc(Cl)cc1)NC(=O)[C@@H](Cc1ccc2ccccc2c1)NC(=O)CCNC(=O)c1cccnc1)C(=O)N[C@@H](CCCCNC(C)C)C(=O)N1CCC[C@H]1C(=O)N[C@H](C)C(N)=O [Example 6a, N-Nicotinyl-3Aminopropionyl-D2Nal-D4ClPhe-D3Pal-Ser-NMeTyr-DLys(N-epsilon- Nicotinyl) -Leu-Lys(N-epsilon-Isopropyl)-Pro-DAlaNH2] ({Nicotinoyl-βAla}-[d2Nal][dPhe(4-Cl)][d3Pal]S[NMeY][dK](Nicotinoyl)L[Lys(iPr)]P[dA]-NH2)
Kb: 0.00891 nM

CC(C)C[C@H](NC(=O)[C@@H](CCCCNC(=O)c1cccnc1)NC(=O)[C@H](Cc1ccc(O)cc1)N(C)C(=O)[C@H](CO)NC(=O)[C@@H](Cc1cccnc1)NC(=O)[C@@H](Cc1ccc(Cl)cc1)NC(=O)[C@@H](Cc1ccc2ccccc2c1)NC(=O)CCNC(=O)C1=C[C@@H](O)[C@@H](O)[C@H](O)C1)C(=O)N[C@@H](CCCCNC(C)C)C(=O)N1CCC[C@H]1C(=O)N[C@H](C)C(N)=O [Example 6b, N-Shikimyl-3Aminopropionyl-D2Nal-D4ClPhe-D3Pal-Ser-NMeTyr-DLys(N-epsilon-Nicotinyl) -Leu-Lys(N-epsilon-Isopropyl)-Pro-DAlaNH2] ({Shikimoyl-βAla}-[d2Nal][dPhe(4-Cl)][d3Pal]S[NMeY][dK](Nicotinoyl)L[Lys(iPr)]P[dA]-NH2)
Kb: 0.0158 nM

CC(C)C[C@H](NC(=O)[C@@H](CCCCNC(=O)c1cccnc1)NC(=O)[C@H](Cc1ccc(O)cc1)N(C)C(=O)[C@H](CO)NC(=O)[C@@H](Cc1cccnc1)NC(=O)[C@@H](Cc1ccc(Cl)cc1)NC(=O)[C@@H](Cc1ccc2ccccc2c1)NC(=O)CCCNC(=O)c1cccnc1)C(=O)N[C@@H](CCCCNC(C)C)C(=O)N1CCC[C@H]1C(=O)N[C@H](C)C(N)=O [Example 6c, N-Nicotinyl-4Aminobutyryl-D2Nal-D4ClPhe-D3Pal-Ser-NMeTyr-DLys(N-epsilon-Nicotinyl) -Leu-Lys(N-epsilon-Isopropyl)-Pro-DAlaNH2] ({Nicotinoyl-GABA}-[d2Nal][dPhe(4-Cl)][d3Pal]S[NMeY][dK](Nicotinoyl)L[Lys(iPr)]P[dA]-NH2)
Kb: 0.0224 nM

CC(C)C[C@H](NC(=O)[C@@H](CCCCNC(=O)c1cccnc1)NC(=O)[C@H](Cc1ccc(O)cc1)N(C)C(=O)[C@H](CO)NC(=O)[C@@H](Cc1cccnc1)NC(=O)[C@@H](Cc1ccc(Cl)cc1)NC(=O)[C@@H](Cc1ccc2ccccc2c1)NC(=O)CCCNC(=O)C1=C[C@@H](O)[C@@H](O)[C@H](O)C1)C(=O)N[C@@H](CCCCNC(C)C)C(=O)N1CCC[C@H]1C(=O)N[C@H](C)C(N)=O [Example 6d, N-Shikimyl-4-Aminobutyryl-D2Nal-D4ClPhe-D3Pal-Ser-NMeTyr-DLys(N-epsilon-Nicotinyl) -Leu-Lys(N-epsilon-Isopropyl)-Pro-DAlaNH2] ({Shikimoyl-GABA}-[d2Nal][dPhe(4-Cl)][d3Pal]S[NMeY][dK](Nicotinoyl)L[Lys(iPr)]P[dA]-NH2)
Kb: 0.0126 nM

CC(C)C[C@H](NC(=O)[C@@H](CCCCNC(=O)c1cccnc1)NC(=O)[C@H](Cc1ccc(O)cc1)N(C)C(=O)[C@H](CO)NC(=O)[C@@H](Cc1cccnc1)NC(=O)[C@@H](Cc1ccc(Cl)cc1)NC(=O)[C@@H](Cc1ccc2ccccc2c1)NC(=O)CCCCNC(=O)C1=C[C@@H](O)[C@@H](O)[C@H](O)C1)C(=O)N[C@@H](CCCCNC(C)C)C(=O)N1CCC[C@H]1C(=O)N[C@H](C)C(N)=O [Example 6f, N-Shikimyl-5Aminovaleryl-D2Nal-D4ClPhe-D3Pal-Ser-NMeTyr-DLys(N-epsilon-Nicotinyl) -Leu-Lys(N-epsilon-Isopropyl)-Pro-DAlaNH2] ({Shikimoyl-Ava}-[d2Nal][dPhe(4-Cl)][d3Pal]S[NMeY][dK](Nicotinoyl)L[Lys(iPr)]P[dA]-NH2)
Kb: 0.0257 nM

CC(C)C[C@H](NC(=O)[C@@H](CCCCNC(=O)c1cccnc1)NC(=O)[C@H](Cc1ccc(O)cc1)N(C)C(=O)[C@H](CO)NC(=O)[C@@H](Cc1cccnc1)NC(=O)[C@@H](Cc1ccc(Cl)cc1)NC(=O)[C@@H](Cc1ccc2ccccc2c1)NC(=O)[C@@H](CO)NC(=O)C1=C[C@@H](O)[C@@H](O)[C@H](O)C1)C(=O)N[C@@H](CCCCNC(C)C)C(=O)N1CCC[C@H]1C(=O)N[C@H](C)C(N)=O [Example 7, N-Shikimyl-DSer-D2Nal-D4ClPhe-D3Pal-Ser-NMeTyr-DLys(N-epsilon-Nicotinyl) -Leu-Lys(N-epsilon-Isopropyl)-Pro-DAlaNH2] (Shikimoyl-[dS][d2Nal][dPhe(4-Cl)][d3Pal]S[NMeY][dK](Nicotinoyl)L[Lys(iPr)]P[dA]-NH2)
Kb: 0.0263 nM

CC(C)C[C@H](NC(=O)[C@@H](CCCCNC(=O)CNC(=O)c1cccnc1)NC(=O)[C@H](Cc1ccc(O)cc1)N(C)C(=O)[C@H](CO)NC(=O)[C@@H](Cc1cccnc1)NC(=O)[C@@H](Cc1ccc(Cl)cc1)NC(=O)[C@@H](Cc1ccc2ccccc2c1)NC(=O)CNC(=O)c1cccnc1)C(=O)N[C@@H](CCCCNC(C)C)C(=O)N1CCC[C@H]1C(=O)N[C@H](C)C(N)=O [Example 8, N-Nicotinyl-Gly-D2Nal-D4ClPhe-D3Pal-Ser-NMeTyr-DLys(Gly-Nicotinyl)-Leu-Lys (N-epsilon-Isopropyl)-Pro-DAlaNH2] (Nicotinoyl-G[d2Nal][dPhe(4-Cl)][d3Pal]S[NMeY][dK]([Gly-Nicotinoyl])L[Lys(iPr)]P[dA]-NH2)
Kb: 0.0204 nM

CC(C)C[C@H](NC(=O)[C@@H](CCCCNC(=O)NNC(=O)c1cccnc1)NC(=O)[C@H](Cc1ccc(O)cc1)N(C)C(=O)[C@H](CO)NC(=O)[C@@H](Cc1cccnc1)NC(=O)[C@@H](Cc1ccc(Cl)cc1)NC(=O)[C@@H](Cc1ccc2ccccc2c1)NC(=O)CNC(=O)c1cccnc1)C(=O)N[C@@H](CCCCNC(C)C)C(=O)N1CCC[C@H]1C(=O)N[C@H](C)C(N)=O [Example 9, N-Nicotinyl-Gly-D2Nal-D4ClPhe-D3Pal-Ser-NMeTyr-DLys(Azagly-Nicotinyl)-Leu-Lys(N-epsilon-Isopropyl) -Pro-DAlaNH2] (Nicotinoyl-G[d2Nal][dPhe(4-Cl)][d3Pal]S[NMeY][dK]([azaGly-Nicotinoyl])L[Lys(iPr)]P[dA]-NH2)
Kb: 0.0347 nM

CC(C)C[C@H](NC(=O)[C@@H](CCCNC(N)=O)NC(=O)[C@H](Cc1ccc(O)cc1)N(C)C(=O)[C@H](CO)NC(=O)[C@@H](Cc1cccnc1)NC(=O)[C@@H](Cc1ccc(Cl)cc1)NC(=O)[C@@H](Cc1ccc2ccccc2c1)NC(=O)CNC(=O)C1CCCO1)C(=O)N[C@@H](CCCNC(=N)N)C(=O)N1CCC[C@H]1C(=O)N[C@H](C)C(N)=O (stereo partly drawn) [Example 13a, N-(R,S)-Tetrahydro-Fur-2-oyl-Gly-D2Nal-D4ClPhe-D3Pal-Ser-NMeTyr-DCit-Leu-Arg-Pro-DAlaNH2] (ξTetrahydrofuran2carbonyl-G[d2Nal][dPhe(4-Cl)][d3Pal]S[NMeY][dCit]LRP[dA]-NH2)
Kb: 0.00447 nM
